What was measured:
Assay in all cases: Kinase selectivity, DiscoverX scanMAX Kinase assay panel (% control)
Type in all cases: binding
[1] = biological target: T1, kinases of the scanMAX Kinase assay panel (Homo sapiens, UniProt O15146); settings: MUSK; 1 uM
T1 construct: purchased DiscoverX Co. (contract measurement) scanMAX Kinase assay panel
T1 sequence (O15146 24-869): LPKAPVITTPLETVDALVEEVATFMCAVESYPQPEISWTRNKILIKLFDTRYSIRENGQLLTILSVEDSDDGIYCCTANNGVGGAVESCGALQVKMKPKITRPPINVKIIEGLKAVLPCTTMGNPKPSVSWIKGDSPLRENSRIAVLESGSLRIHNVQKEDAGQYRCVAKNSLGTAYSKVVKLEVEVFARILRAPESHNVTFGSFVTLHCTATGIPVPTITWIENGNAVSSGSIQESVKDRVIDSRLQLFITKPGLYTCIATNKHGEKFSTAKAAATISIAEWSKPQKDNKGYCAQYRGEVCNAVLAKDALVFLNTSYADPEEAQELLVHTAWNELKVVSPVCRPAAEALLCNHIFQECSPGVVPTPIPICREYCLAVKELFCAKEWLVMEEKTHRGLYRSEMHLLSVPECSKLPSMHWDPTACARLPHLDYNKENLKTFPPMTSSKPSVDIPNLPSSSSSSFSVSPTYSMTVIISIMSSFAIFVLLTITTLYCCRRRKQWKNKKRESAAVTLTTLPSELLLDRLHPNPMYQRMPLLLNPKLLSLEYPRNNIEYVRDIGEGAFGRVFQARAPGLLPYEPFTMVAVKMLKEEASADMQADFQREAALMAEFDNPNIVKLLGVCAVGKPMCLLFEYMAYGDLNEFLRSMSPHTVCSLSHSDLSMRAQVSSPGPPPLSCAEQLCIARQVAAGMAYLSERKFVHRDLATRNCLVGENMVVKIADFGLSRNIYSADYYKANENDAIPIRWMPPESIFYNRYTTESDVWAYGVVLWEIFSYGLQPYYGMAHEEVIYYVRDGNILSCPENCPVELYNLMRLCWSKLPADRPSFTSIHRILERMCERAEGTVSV
Method in brief: (§1)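 A 1 uM DMSO solution of compound was applied across the panel kinases, and results were expressed as % control relative to DMSO (100%) and a positive control (0%).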

[2] = biological target: T2, kinases of the scanMAX Kinase assay panel (Homo sapiens, UniProt Q96L34); settings: MARK4; 1 uM
T2 construct: purchased DiscoverX Co. (contract measurement) scanMAX Kinase assay panel
T2 sequence (Q96L34 1-752): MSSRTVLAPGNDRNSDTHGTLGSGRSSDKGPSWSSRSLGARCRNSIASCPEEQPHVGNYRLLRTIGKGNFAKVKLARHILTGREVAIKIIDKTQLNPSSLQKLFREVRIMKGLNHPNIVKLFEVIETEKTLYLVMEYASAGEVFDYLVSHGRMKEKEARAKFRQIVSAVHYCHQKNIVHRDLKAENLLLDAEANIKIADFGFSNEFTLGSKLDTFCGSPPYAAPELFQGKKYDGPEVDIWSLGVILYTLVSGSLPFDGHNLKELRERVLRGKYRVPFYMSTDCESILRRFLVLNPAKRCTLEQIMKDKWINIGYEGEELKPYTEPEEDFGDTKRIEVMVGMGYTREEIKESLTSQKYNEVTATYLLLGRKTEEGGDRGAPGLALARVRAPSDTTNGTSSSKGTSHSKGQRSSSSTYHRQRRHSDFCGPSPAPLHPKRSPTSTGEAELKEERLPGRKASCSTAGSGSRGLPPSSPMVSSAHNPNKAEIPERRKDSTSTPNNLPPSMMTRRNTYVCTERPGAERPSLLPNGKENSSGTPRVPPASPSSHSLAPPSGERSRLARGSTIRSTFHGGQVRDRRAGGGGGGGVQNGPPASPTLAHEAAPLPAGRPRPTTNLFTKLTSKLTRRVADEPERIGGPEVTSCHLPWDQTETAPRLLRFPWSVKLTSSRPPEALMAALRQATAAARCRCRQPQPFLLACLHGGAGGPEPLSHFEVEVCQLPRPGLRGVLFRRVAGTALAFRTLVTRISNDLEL
Method in brief: as §1

[3] = biological target: T3, kinases of the scanMAX Kinase assay panel (Homo sapiens, UniProt O00238); settings: BMPR1B; 1 uM
T3 construct: purchased DiscoverX Co. (contract measurement) scanMAX Kinase assay panel
T3 sequence (O00238 14-502): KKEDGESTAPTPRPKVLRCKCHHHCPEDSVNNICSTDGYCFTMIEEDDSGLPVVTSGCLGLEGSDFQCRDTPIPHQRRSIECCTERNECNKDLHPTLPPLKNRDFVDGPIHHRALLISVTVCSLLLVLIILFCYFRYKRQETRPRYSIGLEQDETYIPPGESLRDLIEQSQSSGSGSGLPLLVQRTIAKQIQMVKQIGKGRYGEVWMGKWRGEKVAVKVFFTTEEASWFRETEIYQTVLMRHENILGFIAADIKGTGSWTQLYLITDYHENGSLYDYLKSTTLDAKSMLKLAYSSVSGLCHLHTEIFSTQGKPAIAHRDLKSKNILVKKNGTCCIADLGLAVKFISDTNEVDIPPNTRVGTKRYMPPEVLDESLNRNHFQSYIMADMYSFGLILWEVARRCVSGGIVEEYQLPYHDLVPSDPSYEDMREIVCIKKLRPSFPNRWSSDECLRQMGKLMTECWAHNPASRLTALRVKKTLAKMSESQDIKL
Method in brief: as §1

[4] = biological target: T4, kinases of the scanMAX Kinase assay panel (Homo sapiens, UniProt Q8TDC3); settings: BRSK1; 1 uM
T4 construct: purchased DiscoverX Co. (contract measurement) scanMAX Kinase assay panel
T4 sequence (Q8TDC3 1-778): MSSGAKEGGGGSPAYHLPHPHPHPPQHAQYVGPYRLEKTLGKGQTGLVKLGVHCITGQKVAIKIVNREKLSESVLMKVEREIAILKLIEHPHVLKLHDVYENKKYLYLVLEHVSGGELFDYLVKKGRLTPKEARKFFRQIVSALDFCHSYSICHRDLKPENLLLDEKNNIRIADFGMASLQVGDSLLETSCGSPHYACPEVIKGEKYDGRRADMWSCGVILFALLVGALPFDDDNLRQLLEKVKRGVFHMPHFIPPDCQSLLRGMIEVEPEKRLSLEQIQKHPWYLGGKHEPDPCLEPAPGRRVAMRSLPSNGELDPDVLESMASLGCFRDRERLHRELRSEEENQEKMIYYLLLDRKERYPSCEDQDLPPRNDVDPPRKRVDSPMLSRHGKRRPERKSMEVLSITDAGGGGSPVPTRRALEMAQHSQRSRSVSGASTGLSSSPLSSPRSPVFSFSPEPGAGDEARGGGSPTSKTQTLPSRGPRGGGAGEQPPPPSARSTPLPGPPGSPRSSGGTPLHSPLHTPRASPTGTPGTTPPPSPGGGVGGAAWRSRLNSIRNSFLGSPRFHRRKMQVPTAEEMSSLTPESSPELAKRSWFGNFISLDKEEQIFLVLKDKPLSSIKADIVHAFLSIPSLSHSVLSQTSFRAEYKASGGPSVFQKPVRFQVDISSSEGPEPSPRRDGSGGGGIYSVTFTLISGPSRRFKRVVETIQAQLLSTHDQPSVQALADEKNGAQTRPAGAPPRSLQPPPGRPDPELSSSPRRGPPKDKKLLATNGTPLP
Method in brief: as §1

Row | Structure (SMILES) | remaining binding at 1 µM [1] [%] | remaining binding at 1 µM [2] [%] | remaining binding at 1 µM [3] [%] | remaining binding at 1 µM [4] [%]
1 | CNc1nc(Nc2ccc(C(=O)N3CCOCC3)cc2OC)nc2[nH]cc(C#N)c12 [Example 1, 2-((2-methoxy-4-(morpholine-4-carbonyl)phenyl)amino)-4-(methylamino)-7H-pyrrolo[2,3-d]pyrimidine-5-carbonitrile] | 97 | 84 | 98 | 97
2 | CC1(Nc2nc(Nc3cnn([C@H]4CCN(C5COC5)C[C@@H]4F)c3Cl)nc3[nH]cc(C#N)c23)CC1 [Example 52, 2-((5-chloro-1-((3S,4S)-3-fluoro-1-(oxetane-3-yl)piperidine-4-yl)-1H-pyrazole-4-yl)amino)((1-methylcyclopropyl)amino)-7H-pyrrolo[2,3-d]pyrimidine-5-carbonitrile] | 100 | 37 | 22 | 96
3 | CCNc1nc(Nc2ccc(C(=O)N3CCC(N4CCOCC4)CC3)cc2OC)nc2[nH]cc(C(F)(F)F)c12 [Example 104, (4-((4-(ethylamino)-5-(trifluoromethyl)-7H-pyrrolo[2,3-d]pyrimidine-2-yl)amino)-3-methoxyphenyl)(4-morpholinopiperidine-1-yl)methanone] | 94 | 100 | 83 | 100

From US11208412B2 (DAEGU-GYEONGBUK MEDICAL INNOVATION FOUNDATION, priority 2017, dated 2021)
